Reference: article PMC6859963, “Fragment screening for a protein-protein interaction inhibitor to WDR5” (Structural Dynamics, 2019)
Counter-ions that a name gives are not always drawn. Values belong to the molecule of their own block, whether it stands above or below them.

Legend:
WDR5 [1] = target: T1, WDR5 (Homo sapiens, UniProt P61964); experiment: SPR binding of compounds to captured biotinylated WDR5, 1:1 steady-state affinity fit; settings: for Kd: SPR; for LE (ligand efficiency): from SPR KD
T1 construct: hexahistidine-SUMO (N, cleaved yes); made in house; host or cells: E. coli BL21-CodonPlus-RIL
Procedure: SPR assay of small molecule binding used minimally biotinylated WDR5^23–334 protein captured on streptavidin-coated SPR chips. WDR5 (1 eq.) was mixed with freshly water-dissolved EZ-link Sulfo-NHS-LC-LC-biotin (0.8 eq., Thermofisher Scientific). The reaction mixture was incubated on ice for 2 h; unreacted biotin reagent was then removed from the mixture using size-exclusion chromatography on a Superdex 75 (10/300) column equilibrated in storage buffer (10 mM HEPES, 150 mM NaCl, 5 mM DTT).
(§1) SPR experiments were performed using a Biacore T200 or S200 biosensor with a CM5 chip (GE Healthcare). Streptavidin was coupled to the chip surface at 310 K in HBS-P+ running buffer (10 mM HEPES, pH 7.4, 150 mM NaCl, 0.05%[v/v] Tween-20) after a 10 min activation with a 1:1 mixture of NHS/EDC (N-hydroxysuccinimide/N-ethyl-N′-(3-[…])carbodiimide). Protein was diluted to 100 μg·ml^−1 at pH 4.5 (10 mM sodium acetate, 0.005%[v/v] Tween-20) and injected for 7 min. The surface was then blocked with 1 M ethanolamine, pH 8.0, for 7 min. Immobilization levels were typically 7000–13 000 RU, but as low as 1800 RU for compounds 55, 59, and Ac-ARV-NH2, where fitting uses a 1:1 kinetic model to determine dissociation rates. WDR5 capture was then performed over the streptavidin-coupled flow-cells at 293 K in HBS-P+ buffer with the addition of 5 mM DTT. Capture levels for fragment screening were ∼19 000 RU, while capture levels for subsequent testing were ∼9000 RU. The N-terminal domain of heat-shock protein 90 (Hsp90, UnprotKB P08238, residues 1–382) was captured (∼11 000 RU) during screening to provide an unrelated negative control surface, activity being monitored with intermittent ADP (adenosine diphosphate) injections. Biotin was subsequently injected over WDR5- and negative control protein-bound flow-cells to block remaining unbound streptavidin. SPR experiments were performed at 298 K in SPR running buffer containing 50 mM HEPES, 150 mM NaCl, 5 mM DTT, and 0.05%[v/v] Tween-20, 2%[v/v] DMSO. Initial fragments were screened at 100 μM. When performing dose-response testing, analytes were serially diluted (2- or 3-fold), injected for 30 s contact time, and allowed to dissociate for 30 s. The flow rate was 60 μl·min^−1. Binding sensorgrams were processed, solvent-corrected, and double-referenced using Scrubber software (BioLogic Software, Australia). […] Therefore, to determine binding affinities (KD values), responses at equilibrium for each analyte were fitted to a 1:1 steady-state affinity model available within Scrubber.

WDR5 [2] = target: T1, WDR5; experiment: SPR 1:1 kinetic model to determine dissociation rates from WDR5; assay type: binding; settings: for koff: read-out: kd (dissociation rate); for binding to WDR5: samples were mixtures of diastereomers
Source text: Compound 1 was identified as a highly ligand efficient hit that binds the phenylalanine clamp of the WIN site, approximating the arginine headgroup of the WIN motif. […] Two peptidomimetics, with 1 replacing the arginine, were synthesized. Compounds 55 and 59 are analogs of the Ac-ARV-NH2 and Ac-α-MeAla-RV-NH2 tripeptides,[21] respectively (Fig. 5). […] The hydroxymethyl imidazole thus appears to be a good replacement for the charged arginine residue in this context, and 59 may serve as a tool compound with more sensible physicochemical parameters than previous potent tripeptides. […] Binding constants of compounds 55 and 59 are thus difficult to derive. Instead, the (concentration independent) dissociation rates have been reported for 55 and 59 (kd = 0.067 s^−1 and 0.025 s^−1, respectively) to provide a more meaningful comparison to the analogous tripeptide Ac-ARV-NH2 (kd = 0.054 s^−1). […] However, if multiple diastereomers of 55/59 were indeed binding WDR5, it would not detract from the conclusion that hydroxymethyl imidazole-peptidomimetics have potential as WDR5 WIN-site inhibitors.
as §1

[3] = Table II, fragment core, mean ± SE (SE not reported where n = 1)
[4] = Table III, ether-derivatized 2, mean ± SE (SE not reported where n = 1)
[5] = Table IV, derivatives of 2, mean ± SE (SE not reported where n = 1)
[6] = 1:1 kinetic model, concentration independent, 55 and 59 tested as mixtures of diastereomers

Kd (WDR5 [1]; [3]): 480 ± 30 µM | LE (ligand efficiency) (WDR5 [1]): 0.41 kcal·mol^−1·heavy atom^−1
Molecule: CCCCc1ncc(CO)[nH]1 [Compound 1, (2-butyl-1H-imidazol-5-yl)methanol]

Kd (WDR5 [1]; [3]): 260 ± 20 µM | Kd (WDR5 [1]; [4]): 260 ± 20 µM | LE (ligand efficiency) (WDR5 [1]): 0.61 kcal·mol^−1·heavy atom^−1
Molecule: Cc1nc(CO)c[nH]1 [Compound 2, (2-methyl-imidazol-4-yl)methanol]

Molecule: OCc1c[nH]cn1 [Compound 3]
Kd (WDR5 [1]): > 3000 µM | potency estimated from few doses (WDR5 [1]; Table II, estimated from single concentration (100 μM) screen, read-out: KD): > 3 mM

Kd (WDR5 [1]; [3]): > 3000 µM
Molecule: Cc1cc(CO)n[nH]1 [Compound 4]

Kd (WDR5 [1]; [3]): > 3000 µM
Molecule: OCc1ncc[nH]1 [Compound 5]

Kd (WDR5 [1]; [3]): 2100 µM | LE (ligand efficiency) (WDR5 [1]): 0.60 kcal·mol^−1·heavy atom^−1
Molecule: Cc1ncc[nH]1 [Compound 6, 2-methyl imidazole]

Kd (WDR5 [1]; [4]): > 3000 µM
Molecule: COCc1c[nH]c(C)n1 [Compound 7]

Kd (WDR5 [1]; [4]): > 3000 µM
Molecule: CCCOCc1c[nH]c(C)n1 [Compound 8, 2-methyl-4-(propoxymethyl)-1H-imidazole]

Kd (WDR5 [1]; [4]): > 3000 µM
Molecule: Cc1nc(COC(C)C)c[nH]1 [Compound 9, 4-(isopropoxymethyl)-2-methyl-1H-imidazole]

Kd (WDR5 [1]; [4]): > 3000 µM
Molecule: Cc1nc(COCC(F)(F)F)c[nH]1 [Compound 10, 2-methyl-4-((2,2,2-trifluoroethoxy)methyl)-1H-imidazole]

Kd (WDR5 [1]; [4]): 950 µM
Molecule: Cc1nc(COCc2ccccc2)c[nH]1 [Compound 11, 4-((benzyloxy)methyl)-2-methyl-1H-imidazole]

Kd (WDR5 [1]): 5200 µM | Kd (WDR5 [1]; [5]): > 3000 µM
Molecule: OCc1c[nH]c(-c2ccccc2)n1 [Compound 13]

Kd (WDR5 [1]; [5]): 530 µM
Molecule: OCc1c[nH]c(Cc2ccccc2)n1 [Compound 14, (2-benzyl-1H-imidazol-4-yl)methanol]

Kd (WDR5 [1]; [5]): 300 ± 40 µM
Molecule: OCc1c[nH]c(CCc2ccccc2)n1 [Compound 15, (2-phenethyl-1H-imidazol-4-yl)methanol]

Kd (WDR5 [1]; [5]): 140 ± 30 µM | LE (ligand efficiency) (WDR5 [1]): 0.33 kcal·mol^−1·heavy atom^−1
Molecule: OCc1c[nH]c(CCCc2ccccc2)n1 [Compound 16, (2-(3-phenylpropyl)-1H-imidazol-4-yl)methanol]

Kd (WDR5 [1]; [5]): 22 ± 6 µM | LE (ligand efficiency) (WDR5 [1]): 0.35 kcal·mol^−1·heavy atom^−1
Molecule: COC(CCc1nc(CO)c[nH]1)c1ccccc1 (stereo not shown) [Compound 17, (2-(3-methoxy-3-phenylpropyl)-1H-imidazol-4-yl)methanol]

Kd (WDR5 [1]; [5]): 890 µM
Molecule: CNC(=O)CCc1nc(CO)c[nH]1 [Compound 23, 3-(4-(hydroxymethyl)-1H-imidazol-2-yl)-N-methylpropanamide]

Kd (WDR5 [1]; [5]): 240 ± 10 µM
Molecule: CCOC(=O)CCc1nc(CO)c[nH]1 [Compound 24, ethyl 3-(4-(hydroxymethyl)-1H-imidazol-2-yl)propanoate]

Kd (WDR5 [1]; [5]): 350 ± 40 µM
Molecule: NCCCCc1ncc(CO)[nH]1 [Compound 28, (2-(4-aminobutyl)-1H-imidazol-5-yl)methanol bis trifluoroacetic acid]

Kd (WDR5 [1]; [5]): 200 ± 10 µM
Molecule: CC(=O)NCCCCc1ncc(CO)[nH]1 [Compound 29, N-(4-(5-(hydroxymethyl)-1H-imidazol-2-yl)butyl)acetamide trifluoroacetic acid]

Kd (WDR5 [1]; [5]): 12 ± 1 µM
Molecule: O=C(NCCCCc1ncc(CO)[nH]1)c1ccccc1 [Compound 30, N-(4-(5-(hydroxymethyl)-1H-imidazol-2-yl)butyl)benzamide]

Kd (WDR5 [1]; [5]): 25 ± 3 µM
Molecule: O=C(Cc1ccccc1)NCCCCc1ncc(CO)[nH]1 [Compound 31, N-(4-(5-(hydroxymethyl)-1H-imidazol-2-yl)butyl)-2-phenylacetamide trifluoroacetic acid]

Kd (WDR5 [1]; [5]): 28.9 ± 0.5 µM | LE (ligand efficiency) (WDR5 [1]): 0.39 kcal·mol^−1·heavy atom^−1
Molecule: COC(=O)NCCCCc1ncc(CO)[nH]1.O=C(O)C(F)(F)F [Compound 32, Methyl (4-(5-(hydroxymethyl)-1H-imidazol-2-yl)butyl)carbamate trifluoroacetic acid]

Kd (WDR5 [1]; [5]): 11 ± 1 µM
Molecule: O=C(NCCCCc1ncc(CO)[nH]1)OCc1ccccc1 [Compound 35, Benzyl (4-(5-(hydroxymethyl)-1H-imidazol-2-yl)butyl)carbamate trifluoroacetic acid]

Kd (WDR5 [1]; [5]): 4.5 ± 0.3 µM
Molecule: COC(=O)N(CCCCc1ncc(CO)[nH]1)Cc1ccccc1 [Compound 37, Methyl benzyl(4-(5-(hydroxymethyl)-1H-imidazol-2-yl)butyl)carbamate trifluoroacetic acid]

Kd (WDR5 [1]; [5]): 19 ± 3 µM
Molecule: COC(=O)N(CCCCc1nc(CO)c[nH]1)CC1CCNCC1 [Compound 40, Methyl (4-(4-(hydroxymethyl)-1H-imidazol-2-yl)butyl)(piperidin-4-ylmethyl)carbamate bis trifluoroacetic acid]

Kd (WDR5 [1]; [5]): 98.6 ± 0.6 µM | fold weaker binding than 37 (WDR5 [1]; ratio of SPR KD values): 20 fold
Molecule: COC(=O)N(CCCCc1nc(CO)c[nH]1)Cc1ccc(=O)[nH]c1.O=C(O)C(F)(F)F [Compound 45, Methyl (4-(4-(hydroxymethyl)-1H-imidazol-2-yl)butyl)((6-oxo-1,6-dihydropyridin-3-yl)methyl)carbamate trifluoroacetic acid]

Kd (WDR5 [1]; [5]): 24.2 ± 0.2 µM
Molecule: COC(=O)N(CCCCc1nc(CO)c[nH]1)Cc1cc[nH]c(=O)c1 [Compound 47, Methyl (4-(4-(hydroxymethyl)-1H-imidazol-2-yl)butyl)((2-oxo-1,2-dihydropyridin-4-yl)methyl)carbamate hydrochloride]

koff (WDR5 [2]; [6]): 0.067 s⁻¹ | binding to WDR5 (WDR5 [2]): Binding was observed
Molecule: CC(=O)NC(C)C(=O)NC(CCCc1nc(CO)c[nH]1)C(=O)NC(C(N)=O)C(C)C (stereo not shown) [Compound 55, 2-(2-acetamidopropanamido)-N-(1-amino-3-methyl-1-oxobutan-2-yl)-5-(4-(hydroxymethyl)-1H-imidazol-2-yl)pentanamide]

koff (WDR5 [2]; [6]): 0.025 s⁻¹ | binding to WDR5 (WDR5 [2]): Binding was observed
Molecule: CC(=O)NC(C)(C)C(=O)NC(CCCc1nc(CO)c[nH]1)C(=O)NC(C(N)=O)C(C)C (stereo not shown) [Compound 59, 2-(2-acetamido-2-methylpropanamido)-N-(1-amino-3-methyl-1-oxobutan-2-yl)-5-(4-(hydroxymethyl)-1H-imidazol-2-yl)pentanamide]

kd (dissociation rate) (WDR5 [2]; [6]): 0.054 s⁻¹
Molecule: Ac-ARV-NH2 [reference compound]
